US5688938A, “Calcium receptor-active molecules” (priority 1995, dated 1997)
Like-named read-outs stand apart in the source and are kept apart here.

Experiments:
C-cell calcium receptor = molecular target: T1, C-cell calcium receptor (Rattus norvegicus, UniProt P48442); experiment: cell-based; type: cell-based; details: for EC50: rMTC 6-23 cells
T1 construct: Neoplastic C-cells derived from a rat medullary thyroid carcinoma (rMTC 6-23) were obtained from American Type Culture Collection; host or cells: rMTC 6-23 cells
T1 sequence (P48442 20-1079): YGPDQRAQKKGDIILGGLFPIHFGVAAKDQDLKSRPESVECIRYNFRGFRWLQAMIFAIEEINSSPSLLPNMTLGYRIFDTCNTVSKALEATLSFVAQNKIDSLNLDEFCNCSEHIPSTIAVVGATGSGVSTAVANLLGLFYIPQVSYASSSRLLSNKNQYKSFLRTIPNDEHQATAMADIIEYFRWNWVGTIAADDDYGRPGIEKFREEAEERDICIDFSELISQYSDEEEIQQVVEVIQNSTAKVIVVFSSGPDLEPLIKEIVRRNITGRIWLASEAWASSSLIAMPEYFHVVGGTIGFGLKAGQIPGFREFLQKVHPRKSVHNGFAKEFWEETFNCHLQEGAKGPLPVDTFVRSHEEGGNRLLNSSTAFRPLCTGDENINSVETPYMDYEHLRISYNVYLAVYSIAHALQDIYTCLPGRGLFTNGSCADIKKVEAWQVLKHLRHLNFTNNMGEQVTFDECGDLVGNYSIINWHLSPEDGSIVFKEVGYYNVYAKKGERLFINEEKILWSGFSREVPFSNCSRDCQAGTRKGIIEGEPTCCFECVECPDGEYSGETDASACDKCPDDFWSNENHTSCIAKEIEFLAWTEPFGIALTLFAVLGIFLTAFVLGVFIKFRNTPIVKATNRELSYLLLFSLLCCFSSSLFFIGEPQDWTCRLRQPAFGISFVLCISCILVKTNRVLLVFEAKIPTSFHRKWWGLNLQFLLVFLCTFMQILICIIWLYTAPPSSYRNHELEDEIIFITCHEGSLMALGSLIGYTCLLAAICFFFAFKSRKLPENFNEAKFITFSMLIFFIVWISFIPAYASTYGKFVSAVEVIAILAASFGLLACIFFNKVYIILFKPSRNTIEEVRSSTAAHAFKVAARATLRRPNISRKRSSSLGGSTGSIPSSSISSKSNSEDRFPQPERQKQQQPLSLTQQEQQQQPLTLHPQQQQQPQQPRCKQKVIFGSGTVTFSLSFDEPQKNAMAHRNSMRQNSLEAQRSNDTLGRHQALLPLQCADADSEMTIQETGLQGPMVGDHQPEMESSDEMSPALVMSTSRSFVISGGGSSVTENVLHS
Excerpt: To assess the effects of molecular polycations on C-cells, a neoplastic cell line, derived from a rat medullary thyroid carcinoma (rMTC 6-23 cells) was used.

[1] = single oral doses of NPS R-568 in a healthy post-menopausal person; type: in vivo, human
Excerpt: A range of single oral doses was used to assess safety, tolerance, and changes in primary hyperparathyroidism markers (e.g., plasma concentrations of parathyroid hormone and ionized serum calcium) and of serum calcitonin.

[2] = serum/plasma Ca^2+, PTH and calcitonin in rats, oral; type: in vivo; details: rat, oral
Excerpt: Rats (male, Sprague-Dawley, 250-300 g) were fed standard rat chow and fasted overnight prior to the experiment. NPS R-467 was suspended in corn oil and administered as a single oral dose through a gavage needle. Three hours later a sample of blood was taken from the tail vein and assessed for ionized Ca^2+ levels.

net positive charge = type: physicochemical
bovine parathyroid cells = experiment: PTH secretion from bovine parathyroid cells; type: cell-based
Excerpt: In most experiments, cells loaded with fura-2 were also used in studies of PTH secretion.

human parathyroid cells = experiment: PTH secretion from human parathyroid cells; type: cell-based
Experimental: PTH secretion was measured by first suspending cells in PCB containing 0.5 mM CaCl2 and 0.1% BSA.
For human cells, a commercially available radioimmunoassay kit (INS-PTH; Nichols Institute, Los Angeles, Calif.) which recognizes intact and N-terminal human PTH was used because GW-1 antibody recognizes human PTH poorly.
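For Serum Calcitonin in this document: serum calcitonin in pg/mL.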

NCCCNCCCCNCCCNCCCNCCCNC(=O)Cc1c[nH]c2ccccc12 [NPS 019, reference compound]
transient increase in [Ca^2+]i in C-cells (C-cell calcium receptor; 10 μM, 0.5 mM [Ca^2+]): refractory to inhibition by La^3+
EC50 (C-cell calcium receptor; Table 6, read-out: EC50 C-CELL): 5 µM
EC50 (C-cell calcium receptor; read-out: EC50 for mobilizing intracellular Ca^2+ in C-cells): 5 µM

COc1cccc([C@@H](C)NCCCc2ccccc2Cl)c1 [NPS R-568, (R)-(+)-N-[3-(2-chlorophenyl)propyl]-α-methyl-3-methoxybenzylamine]
Serum Calcitonin ([1]; 20 mg oral, 0 h): 3.2 pg/mL
Serum Ionized Calcium ([1]; 20 mg oral, 0 h): 1.26 mM
Serum PTH ([1]; 20 mg oral, 0 h): 31 pg/mL
Serum Calcitonin ([1]; 20 mg oral, 0.5 h): 3.8 pg/mL
Serum Ionized Calcium ([1]; 20 mg oral, 0.5 h): 1.26 mM
Serum PTH ([1]; 20 mg oral, 0.5 h): 23 pg/mL
Serum Calcitonin ([1]; 20 mg oral, 1 h): 3.2 pg/mL
Serum Ionized Calcium ([1]; 20 mg oral, 1 h): 1.26 mM
Serum PTH ([1]; 20 mg oral, 1 h): 18 pg/mL
Serum Calcitonin ([1]; 20 mg oral, 2 h): 4.5 pg/mL
Serum Ionized Calcium ([1]; 20 mg oral, 2 h): 1.26 mM
Serum PTH ([1]; 20 mg oral, 2 h): 24 pg/mL
Serum Calcitonin ([1]; 20 mg oral, 4 h): 4.2 pg/mL
Serum Ionized Calcium ([1]; 20 mg oral, 4 h): 1.26 mM
Serum PTH ([1]; 20 mg oral, 4 h): 34 pg/mL
Serum Calcitonin ([1]; 20 mg oral, 8 h): 3.9 pg/mL
Serum Ionized Calcium ([1]; 20 mg oral, 8 h): 1.26 mM
Serum PTH ([1]; 20 mg oral, 8 h): 34 pg/mL
Serum Calcitonin ([1]; 20 mg oral, 12 h): 3.2 pg/mL
Serum Ionized Calcium ([1]; 20 mg oral, 12 h): 1.23 mM
Serum PTH ([1]; 20 mg oral, 12 h): 48 pg/mL
Serum Calcitonin ([1]; 20 mg oral, 24 h): 3.6 pg/mL
Serum Ionized Calcium ([1]; 20 mg oral, 24 h): 1.29 mM
Serum PTH ([1]; 20 mg oral, 24 h): 32 pg/mL
Serum Calcitonin ([1]; 240 mg oral, 0 h): 5.8 pg/mL
Serum Ionized Calcium ([1]; 240 mg oral, 0 h): 1.26 mM
Serum PTH ([1]; 240 mg oral, 0 h): 29 pg/mL
Serum Calcitonin ([1]; 240 mg oral, 0.5 h): 4.8 pg/mL
Serum Ionized Calcium ([1]; 240 mg oral, 0.5 h): 1.26 mM
Serum PTH ([1]; 240 mg oral, 0.5 h): 18 pg/mL
Serum Calcitonin ([1]; 240 mg oral, 1 h): 6.5 pg/mL
Serum Ionized Calcium ([1]; 240 mg oral, 1 h): 1.25 mM
Serum PTH ([1]; 240 mg oral, 1 h): 6 pg/mL
Serum Calcitonin ([1]; 240 mg oral, 2 h): 7.5 pg/mL
Serum Ionized Calcium ([1]; 240 mg oral, 2 h): 1.23 mM
Serum PTH ([1]; 240 mg oral, 2 h): 6 pg/mL
Serum Calcitonin ([1]; 240 mg oral, 4 h): 6.1 pg/mL
Serum Ionized Calcium ([1]; 240 mg oral, 4 h): 1.19 mM
Serum PTH ([1]; 240 mg oral, 4 h): 10 pg/mL
Serum Calcitonin ([1]; 240 mg oral, 8 h): 4.7 pg/mL
Serum Ionized Calcium ([1]; 240 mg oral, 8 h): 1.16 mM
Serum PTH ([1]; 240 mg oral, 8 h): 27 pg/mL
Serum Calcitonin ([1]; 240 mg oral, 12 h): 5.3 pg/mL
Serum Ionized Calcium ([1]; 240 mg oral, 12 h): 1.18 mM
Serum PTH ([1]; 240 mg oral, 12 h): 35 pg/mL
Serum Calcitonin ([1]; 240 mg oral, 24 h): 8.3 pg/mL
Serum Ionized Calcium ([1]; 240 mg oral, 24 h): 1.23 mM
Serum PTH ([1]; 240 mg oral, 24 h): 34 pg/mL
Serum Calcitonin ([1]; 400 mg oral, 0 h): 3.4 pg/mL
Serum Ionized Calcium ([1]; 400 mg oral, 0 h): 1.24 mM
Serum PTH ([1]; 400 mg oral, 0 h): 33 pg/mL
Serum Calcitonin ([1]; 400 mg oral, 0.5 h): 4.0 pg/mL
Serum Ionized Calcium ([1]; 400 mg oral, 0.5 h): 1.26 mM
Serum PTH ([1]; 400 mg oral, 0.5 h): 13 pg/mL
Serum Calcitonin ([1]; 400 mg oral, 1 h): 6.0 pg/mL
Serum Ionized Calcium ([1]; 400 mg oral, 1 h): 1.25 mM
Serum PTH ([1]; 400 mg oral, 1 h): 9 pg/mL
Serum Calcitonin ([1]; 400 mg oral, 2 h): 7.1 pg/mL
Serum Ionized Calcium ([1]; 400 mg oral, 2 h): 1.22 mM
Serum PTH ([1]; 400 mg oral, 2 h): 8 pg/mL
Serum Calcitonin ([1]; 400 mg oral, 4 h): 5.2 pg/mL
Serum Ionized Calcium ([1]; 400 mg oral, 4 h): 1.19 mM
Serum PTH ([1]; 400 mg oral, 4 h): 11 pg/mL
Serum Calcitonin ([1]; 400 mg oral, 8 h): 3.8 pg/mL
Serum Ionized Calcium ([1]; 400 mg oral, 8 h): 1.13 mM
Serum PTH ([1]; 400 mg oral, 8 h): 20 pg/mL
Serum Calcitonin ([1]; 400 mg oral, 12 h): 3.7 pg/mL
Serum Ionized Calcium ([1]; 400 mg oral, 12 h): 1.15 mM
Serum PTH ([1]; 400 mg oral, 12 h): 31 pg/mL
Serum Calcitonin ([1]; 400 mg oral, 24 h): 3.0 pg/mL
Serum Ionized Calcium ([1]; 400 mg oral, 24 h): 1.22 mM
Serum PTH ([1]; 400 mg oral, 24 h): 31 pg/mL
effect on serum ionized calcium (summary) ([1]; human, higher oral doses): decrease in serum ionized calcium concentration
effect on plasma PTH (summary) ([1]; human, oral): transient dose-dependent decrease in plasma PTH concentration
effect on serum calcitonin (summary) ([1]; human, oral): no apparent change in serum calcitonin
hypocalcemic response after prior complete nephrectomy [2]: only marginally affected

NC[C@@H]1O[C@H](O[C@H]2[C@@H](O)[C@H](O[C@@H]3[C@@H](O)[C@H](N)C[C@H](N)[C@H]3O[C@H]3O[C@H](CN)[C@@H](O)[C@H](O)[C@H]3N)O[C@@H]2CO)[C@H](N)[C@@H](O)[C@@H]1O [Neomycin]
Net (+) Charge (net positive charge; Table 1, at physiological pH): +6
net positive charge at pH 7.3 (net positive charge; pH 7.3): +6
inhibition of PTH secretion (bovine parathyroid cells): inhibited PTH secretion to the same extent as extracellular Ca^2+
effect on basal [Ca^2+]i in C-cells (C-cell calcium receptor): without effect on basal [Ca^2+ ]i
inhibition of PTH secretion (human parathyroid cells): inhibited PTH secretion from human parathyroid cells
